In data set [1] the test system is SW620/AD300. Kind of data set: Cytotoxicity against multidrug resistant human SW620/AD300 cells assessed as inhibition of cell viability at 20 uM measured after 72 hrs in presence of paclitaxel by CCK-8 method relative to control. It counts as functional. For orientation: Tetrazolium dyes change colour on reduction, which living cells bring about.
Data set [2] has as its system SW620/AD300. Kind of data set: Inhibition of colony formation in human SW620/AD300 cells assessed as decrease in colony number at 1 uM incubated for 7 days by crystal violet staining based analysis. It is filed as functional, cell-based. Conditions: time 7.0 day.
Data set [3] has as its system SW620/AD300. Kind of data set: Cytotoxicity against multidrug resistant human SW620/AD300 cells assessed as inhibition of cell viability at 1 uM measured after 72 hrs by CCK-8 method relative to control. It is filed as functional.
The test system of data set [4] is SW620/AD300. Kind of data set: Reversal of multi-drug resistance in human SW620/AD300 cells assessed as decrease in colony number at 20 uM presence of 0.25 uM of paclitaxel incubated for 7 days by crystal violet staining based analysis. It counts as functional, cell-based. The following applies: time 7.0 day.
The test system of data set [5] is SW620/AD300. Briefly: Reversal of multi-drug resistance in human SW620/AD300 cells assessed as decrease in frequency of cells in G0/G1 phase at 20 uM presence of 1 uM of paclitaxel incubated for 24 hrs by PI staining based flow cytometry analysis. It counts as functional, cell-based.
Data set [6] concerns SW620/AD300. Kind of data set: Reversal of multi-drug resistance in human SW620/AD300 cells assessed as decrease in colony number at 20 uM presence of 1 uM of paclitaxel incubated for 7 days by crystal violet staining based analysis. It is filed as functional, cell-based. Conditions: time 7.0 day.
Data set [7] deals with SW620/AD300. Kind of data set: Reversal of multi-drug resistance in human SW620/AD300 cells assessed as increase in frequency of cells in G2/M phase at 20 uM presence of 1 uM of paclitaxel incubated for 24 hrs by PI staining based flow cytometry analysis. It is filed as functional, cell-based. For orientation: A flow cytometer gives signals particle by particle.
In data set [8] the target is ATP-dependent translocase ABCB1 (Homo sapiens, UniProt P08183). Kind of data set: Induction of thermal stabilization of P-gp in multidrug resistant human SW620/AD300 cells at 20 uM incubated for 30 mins by CESTA analysis. It counts as cell-based. Conditions: sw620/ad300, 0.5 h.
In data set [9] the test system is SW620/AD300. Briefly: Inhibition of colony formation in human SW620/AD300 cells assessed as decrease in colony number at 20 uM incubated for 7 days by crystal violet staining based analysis. It is filed as functional, cell-based. Conditions: time 7.0 day.

The structures appear in SMILES notation. The source made the active and inactive calls. The rule behind the calls is not given here.

ATP-dependent translocase ABCB1, sequence (P08183 whole entry): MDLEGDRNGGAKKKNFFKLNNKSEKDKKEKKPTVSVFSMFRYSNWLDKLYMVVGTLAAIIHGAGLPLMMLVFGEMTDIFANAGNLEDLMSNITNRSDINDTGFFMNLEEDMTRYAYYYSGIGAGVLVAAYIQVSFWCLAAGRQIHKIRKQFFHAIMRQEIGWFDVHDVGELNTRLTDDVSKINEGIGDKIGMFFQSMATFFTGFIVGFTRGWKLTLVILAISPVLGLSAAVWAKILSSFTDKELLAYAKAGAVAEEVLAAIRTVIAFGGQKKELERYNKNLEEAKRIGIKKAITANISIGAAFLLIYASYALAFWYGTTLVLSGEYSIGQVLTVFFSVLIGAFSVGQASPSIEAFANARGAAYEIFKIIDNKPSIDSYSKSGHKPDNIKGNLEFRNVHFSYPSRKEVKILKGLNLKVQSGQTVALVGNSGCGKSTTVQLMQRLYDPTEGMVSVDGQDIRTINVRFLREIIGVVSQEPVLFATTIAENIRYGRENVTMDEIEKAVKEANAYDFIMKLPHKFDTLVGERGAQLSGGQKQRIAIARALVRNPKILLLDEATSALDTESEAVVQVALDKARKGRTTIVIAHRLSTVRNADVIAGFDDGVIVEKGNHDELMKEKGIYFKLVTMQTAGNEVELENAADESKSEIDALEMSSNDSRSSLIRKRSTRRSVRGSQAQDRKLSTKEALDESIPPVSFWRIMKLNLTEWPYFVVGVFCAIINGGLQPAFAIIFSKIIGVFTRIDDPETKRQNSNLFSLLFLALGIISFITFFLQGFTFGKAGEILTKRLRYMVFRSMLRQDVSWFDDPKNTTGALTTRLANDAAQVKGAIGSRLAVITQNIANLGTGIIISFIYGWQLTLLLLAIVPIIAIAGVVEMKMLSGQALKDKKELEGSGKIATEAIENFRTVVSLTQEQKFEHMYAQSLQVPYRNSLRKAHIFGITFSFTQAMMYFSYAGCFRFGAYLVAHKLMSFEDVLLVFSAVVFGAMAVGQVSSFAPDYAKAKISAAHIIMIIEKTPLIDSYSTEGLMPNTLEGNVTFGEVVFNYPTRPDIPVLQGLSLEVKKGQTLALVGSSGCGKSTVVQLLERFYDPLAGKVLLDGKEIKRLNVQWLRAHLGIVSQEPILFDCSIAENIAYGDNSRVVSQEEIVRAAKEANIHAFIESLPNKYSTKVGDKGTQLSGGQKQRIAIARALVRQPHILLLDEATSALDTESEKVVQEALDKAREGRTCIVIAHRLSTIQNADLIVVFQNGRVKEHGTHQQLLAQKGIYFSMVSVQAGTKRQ

Take `COc1cc2oc(C)cc(=O)c2c2c1C[C@@H](C)[C@@]1(C[C@@H](O)C[C@H](C)O1)O2`: the inhibition (in general, the drop in the measured response relative to a control, in per cent) at 20 µM in the data set with SW620/AD300 [1] was 10%.

As for `COc1cc2oc(C)cc(=O)c2c2c1C[C@@H](C)[C@@]1(O2)O[C@@H](C)C[C@H](O)[C@@H]1O`, the inhibition at 20 µM in the data set on SW620/AD300 [1] amounted to 19.6%.

Regarding `CC(=O)O[C@H]1C(=O)[C@@]2(C)[C@H]([C@H](OC(=O)c3ccccc3)[C@]3(O)C[C@H](OC(=O)[C@H](O)[C@@H](NC(=O)c4ccccc4)c4ccccc4)C(C)=C1C3(C)C)[C@]1(OC(C)=O)CO[C@@H]1C[C@@H]2O` [PACLITAXEL], in the data set with SW620/AD300 [2], the inhibition entry was “inactive”. For the same molecule, the inhibition at 1 µM with SW620/AD300 [3] was 1.1%.

Regarding `COc1cc2oc(C)cc(=O)c2c2c1C[C@H](C)[C@@]1(O2)O[C@@H](C)CCC1=O`, the inhibition at 20 µM in the data set on SW620/AD300 [1] was found to be 24.5%.

For `COc1cc2oc(CO)cc(=O)c2c2c1C[C@H](C)[C@@]1(O2)O[C@@H](C)C[C@H](O)[C@@H]1O`, the inhibition at 20 µM in the data set with SW620/AD300 [1] stood at 15.3%.

On to `COc1cc2oc(C)cc(=O)c2c2c1C[C@H](C)[C@@]1(C[C@H](OC)C[C@H](C)O1)O2`, for which the inhibition at 20 µM with SW620/AD300 [1] was 29.2%.

`COc1cc2oc(C)cc(=O)c2c2c1CC(C)C1(O2)OC(C)CC(O)C1O` (stereo not given): the inhibition at 20 µM with SW620/AD300 [1] was determined as 11.1%.

For `COc1cc2oc(C)cc(=O)c2c2c1C[C@H](C)[C@@]1(O2)O[C@@H](C)C[C@H](O)[C@@H]1O`, the inhibition at 20 µM in the data set on SW620/AD300 [1] was 22%.

As for `COc1cc2oc(CO)cc(=O)c2c2c1C[C@@H](C)[C@@]1(C[C@@H](NCC/C(C)=C/C(=O)O)C[C@H](C)O1)O2`, in the data set on SW620/AD300 [1], the inhibition at 20 µM worked out at 46.4%.

Turning to `COc1cc2oc(C)cc(=O)c2c2c1C[C@@H](C)[C@@]1(C[C@H](O)C[C@H](C)O1)O2`, the inhibition at 20 µM with SW620/AD300 [1] came out at 0.2%.

As for `COc1cc2oc(CO)cc(=O)c2c2c1C[C@@H](C)[C@@]1(O2)O[C@@H](C)C[C@H](O)[C@@H]1O`, the inhibition at 20 µM in the data set on SW620/AD300 [1] stood at 11.2%.

For `COc1cc2oc(C)cc(=O)c2c2c1C[C@@H](C)[C@@]1(C[C@H](OC)C[C@H](C)O1)O2`, the result with SW620/AD300 [4], in the data set on SW620/AD300 [5], in the data set with SW620/AD300 [6] and in the data set with SW620/AD300 [7] was Active. The inhibition at 20 µM in the data set with SW620/AD300 [1] was 77.8%. The outcome in [8] was Active. For the same molecule, in the data set with SW620/AD300 [9], the inhibition entry was “inactive”.

On to `COc1cc2oc(C)cc(=O)c2c2c1CC[C@@]1(O2)O[C@@H](C)C[C@H](O)[C@@H]1O`, for which, in the data set on SW620/AD300 [1], the inhibition at 20 µM turned out to be 3.1%.

Values taken from ChEMBL document CHEMBL6120991, “Chromones Featuring a [6,6]-Spiroketal Moiety Produced by Coculture of the Endophytic Fungi Chaetomium virescens and Xylaria Grammica” (J Nat Prod, 2025).
